Reference: ChEMBL document CHEMBL1201862, “PubChem BioAssay data set” (2004)
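In this assay, cells in 96-well plates receive the compound at five concentrations for 48 hours. Endpoints are linearly interpolated between the surrounding concentrations. The concentration for 50% growth inhibition is given as GI50.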 The source made the active and inactive calls. Rule as the data show it: active = GI50 up to about 1.1 µM and inactive = higher.

Assays:
Test in all cases: NCI anticancer screen, dose series, 48 h
RPMI-8226 = tested on: RPMI-8226
EKVX = tested on: EKVX
CCRF-CEM = tested on: CCRF-CEM
NCI-H226 = tested on: NCI-H226
A498 = tested on: A498
IGROV-1 = tested on: IGROV-1
HCT-116 = tested on: HCT-116
A549 = tested on: A549
HT-29 = tested on: HT-29
TK-10 = tested on: TK-10
OVCAR-5 = tested on: OVCAR-5
HOP-62 = tested on: HOP-62
OVCAR-4 = tested on: OVCAR-4
SNB-19 = tested on: SNB-19
OVCAR-8 = tested on: OVCAR-8
SR = tested on: SR
MDA-MB-435 = tested on: MDA-MB-435

Measured: GI50

CCn1c(C)nc([N+](=O)[O-])c1Sc1ncc[nH]1
inactive: RPMI-8226 21.1 µM | EKVX 75.7 µM | CCRF-CEM 19.8 µM | NCI-H226 > 100 µM | A498 > 100 µM | IGROV-1 71 µM | HCT-116 43.2 µM | A549 > 100 µM | HT-29 78.7 µM | TK-10 > 100 µM | OVCAR-5 > 100 µM | HOP-62 > 100 µM | OVCAR-4 64.4 µM | SNB-19 > 100 µM | OVCAR-8 46.1 µM | SR 23.3 µM

N#Cc1c2ccc([N+](=O)[O-])cc2c(=O)n2c1sc1ccc(C(F)(F)F)cc12
inactive: RPMI-8226 > 100 µM | EKVX > 100 µM | NCI-H226 > 100 µM | A498 > 100 µM | IGROV-1 > 100 µM | HCT-116 > 100 µM | A549 > 100 µM | HT-29 > 100 µM | TK-10 > 100 µM | OVCAR-5 > 100 µM | HOP-62 > 100 µM | OVCAR-4 > 100 µM | SNB-19 > 100 µM | MDA-MB-435 > 100 µM | OVCAR-8 > 100 µM

Nc1ccccc1C(=O)/C=C/c1c(O)ccc2ccccc12
inactive: RPMI-8226 > 100 µM | EKVX > 100 µM | CCRF-CEM > 100 µM | NCI-H226 > 100 µM | A498 > 100 µM | IGROV-1 > 100 µM | HCT-116 > 100 µM | A549 > 100 µM | HT-29 > 100 µM | TK-10 > 100 µM | OVCAR-5 > 100 µM | HOP-62 > 100 µM | OVCAR-4 > 100 µM | SNB-19 > 100 µM | OVCAR-8 > 100 µM | SR > 100 µM

COc1ccc(C(=C(C#N)C#N)c2ccc(OC)cc2)cc1
inactive: RPMI-8226 > 100 µM | EKVX > 100 µM | CCRF-CEM 33 µM | NCI-H226 > 100 µM | A498 > 100 µM | IGROV-1 > 100 µM | HCT-116 > 100 µM | A549 > 100 µM | HT-29 > 100 µM | TK-10 > 100 µM | OVCAR-5 > 100 µM | HOP-62 > 100 µM | OVCAR-4 > 100 µM | SNB-19 > 100 µM | OVCAR-8 > 100 µM | SR 59.4 µM

Cc1cc(=O)c2c([nH]1)NS(=O)(=O)NC2=O
inactive: RPMI-8226 > 100 µM | EKVX > 100 µM | CCRF-CEM > 100 µM | NCI-H226 > 100 µM | A498 > 100 µM | IGROV-1 > 100 µM | HCT-116 > 100 µM | A549 > 100 µM | HT-29 > 100 µM | TK-10 > 100 µM | HOP-62 > 100 µM | OVCAR-4 > 100 µM | SNB-19 > 100 µM | OVCAR-8 > 100 µM | SR > 100 µM

C=CCC12CCC(=O)[C@@]1(C)CC=C(O)C2=O (stereo not given in full)
inactive: RPMI-8226 > 100 µM | EKVX > 100 µM | CCRF-CEM > 100 µM | NCI-H226 > 100 µM | A498 > 100 µM | IGROV-1 > 100 µM | HCT-116 > 100 µM | A549 > 100 µM | HT-29 > 100 µM | TK-10 > 100 µM | OVCAR-5 > 100 µM | HOP-62 > 100 µM | OVCAR-4 > 100 µM | SNB-19 > 100 µM | OVCAR-8 > 100 µM | SR > 100 µM

COc1cc2c(c(O)c1O)-c1ccc(OC)c(=O)cc1C(NC(C)=O)CC2 (stereo not given)
inactive: RPMI-8226 3.86 µM | EKVX 39 µM | CCRF-CEM 3.49 µM | NCI-H226 43.2 µM | A498 34.1 µM | IGROV-1 32.1 µM | HCT-116 5.57 µM | A549 36.4 µM | HT-29 3.91 µM | TK-10 64.3 µM | OVCAR-5 76.6 µM | HOP-62 20.5 µM | OVCAR-4 27.5 µM | SNB-19 5.07 µM | OVCAR-8 15.6 µM | SR 5.69 µM
